Experimental data taken from PMC6063323, “Synthesis, radiosynthesis, in vitro and first in vivo evaluation of a new matrix metalloproteinase inhibitor based on γ-fluorinated α-sulfonylaminohydroxamic acid” (EJNMMI Radiopharmacy and Chemistry, 2018).
Like-named read-outs stand apart in the source and are kept apart here. One block for each compound: values may come before it.

Tests used:
MMP-2 = settings: cited from earlier work
MMP-9 = settings: cited from earlier work
activated MMP-2 = molecular target: T1, activated MMP-2 (Homo sapiens, UniProt P08253); experiment: fluorometric in vitro MMP-2 inhibition assay; assay type: biochemical; settings: SD from three independent experiments; enzyme 2 nM, 37 °C, 30 min preincubation
T1 sequence (P08253 110-660): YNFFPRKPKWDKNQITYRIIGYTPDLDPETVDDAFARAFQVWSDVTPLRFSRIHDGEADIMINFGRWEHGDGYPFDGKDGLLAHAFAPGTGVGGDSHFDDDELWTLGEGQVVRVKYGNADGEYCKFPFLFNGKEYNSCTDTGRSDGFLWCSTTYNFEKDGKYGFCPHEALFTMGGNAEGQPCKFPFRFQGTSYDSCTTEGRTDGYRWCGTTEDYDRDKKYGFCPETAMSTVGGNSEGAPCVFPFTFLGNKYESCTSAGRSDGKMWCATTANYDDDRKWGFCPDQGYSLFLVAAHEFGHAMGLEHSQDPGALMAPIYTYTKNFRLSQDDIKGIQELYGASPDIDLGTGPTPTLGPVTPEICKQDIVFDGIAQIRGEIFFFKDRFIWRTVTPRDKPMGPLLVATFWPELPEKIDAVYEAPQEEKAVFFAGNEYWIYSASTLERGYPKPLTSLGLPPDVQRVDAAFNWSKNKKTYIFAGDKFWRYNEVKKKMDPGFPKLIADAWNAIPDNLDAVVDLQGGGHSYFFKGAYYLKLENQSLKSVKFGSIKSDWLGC
Procedure: (§1) The inhibition potencies of (R)-9a and (S)-9a against activated MMP-2 and -9 were assayed using the synthetic fluorometric substrate (7-methoxycoumarin-4-yl)acetyl-Pro-Leu-Gly-Leu-(3-(2,4-dinitrophenyl)-L-2,3-diaminopropionyl)Ala-Arg-NH2 (R&D Systems) as described previously (Huang et al. [1997]). Briefly, MMP-2 and -9 (each at 2 nM) and test compounds at varying concentrations (10 pM to 1 mM) in Tris (50 mM), pH 7.5, containing NaCl (0.2 M), CaCl2 (5 mM), ZnSO4 (20 μM), and 0.05% Brij 35 were preincubated at 37 °C for 30 min. An aliquot of substrate (10 μL of a 50 μM solution) was added to the enzyme inhibitor mixture (90 μL), and the fluorescence changes were monitored using a TriStar2 Multimode Reader LB 942, (Berthold) with excitation and emission wavelengths of 340 and 405 nm, respectively. Reaction rates were measured from the initial 10 min and plotted as a function of inhibitor concentration. From the resulting inhibition curves, the IC50 values were calculated by nonlinear regression analysis using the Grace 5.1.8 software (Linux).
(§2) The MMP inhibition potencies of the hydroxamic acids (R)-9a and (S)-9a (Fig. 2) against MMP-2 and -9 were measured by fluorometric in vitro inhibition assays, following the previously described procedure (Huang et al. [1997]).

activated MMP-9 = activated MMP-9 (Homo sapiens, UniProt P14780); experiment: fluorometric in vitro MMP-9 inhibition assay; assay type: biochemical; settings: SD from three independent experiments; enzyme 2 nM, 37 °C, 30 min preincubation
activated MMP-9, sequence (P14780 107-707 limits assumed): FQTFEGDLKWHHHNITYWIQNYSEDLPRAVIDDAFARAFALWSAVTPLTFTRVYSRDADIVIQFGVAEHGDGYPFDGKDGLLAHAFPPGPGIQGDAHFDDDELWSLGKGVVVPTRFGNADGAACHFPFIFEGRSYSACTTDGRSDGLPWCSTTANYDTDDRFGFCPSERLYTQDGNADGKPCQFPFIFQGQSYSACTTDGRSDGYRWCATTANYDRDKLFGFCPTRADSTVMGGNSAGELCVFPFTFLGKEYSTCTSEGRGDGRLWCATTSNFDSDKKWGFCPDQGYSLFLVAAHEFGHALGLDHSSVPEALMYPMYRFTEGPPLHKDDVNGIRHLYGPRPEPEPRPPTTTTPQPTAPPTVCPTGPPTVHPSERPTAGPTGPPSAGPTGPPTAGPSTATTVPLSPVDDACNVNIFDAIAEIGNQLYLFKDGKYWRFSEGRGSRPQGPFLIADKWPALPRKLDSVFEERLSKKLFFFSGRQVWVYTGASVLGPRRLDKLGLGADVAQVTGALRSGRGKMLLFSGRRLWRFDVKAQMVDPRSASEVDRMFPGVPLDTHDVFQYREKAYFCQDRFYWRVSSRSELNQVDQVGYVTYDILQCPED
Procedure: as §1, §2

[1] = water/octanol partition coefficient logD (exp.); assay type: physicochemical; settings: for logD: 1-octanol/PBS pH 7.4, determined for (S)-[^18F]9a
Procedure: The lipophilicity of the radioligand (S)-[^18F]9a was assessed by determination of the water/octanol partition coefficients following a published procedure (Prante et al. [2006]). In brief, approximately 20 kBq of (S)-[^18F]9a were mixed with equal amounts (0.5 mL) of PBS (pH 7.4) and 1-octanol and the resulting biphasic system was mixed vigorously for 1 min at rt. The tubes were centrifuged (3000 rpm, 2 min) and 400 μL of the octanol phase were separated and again mixed with equal amounts (400 μL) of PBS. The resulting biphasic system was again mixed vigorously of 1 min at rt. After centrifugation (3000 rpm, 2 min) three samples of 100 μL of each layer were counted in a gamma counter (Wallac Wizard, Perkin-Elmer Life Science). The partition coefficient was determined by calculating the ratio cpm(octanol)/cpm(PBS) and expressed as logD (exp.) (log(cpmoctanol/cpmPBS)). Two independent experiments were performed in triplicate and data were provided as mean values ± standard deviation.
Radiosynthesis of the ^18F-labelled counterpart (S)-[^18F]9a was accomplished via direct nucleophilic substitution reaction of the tosylate precursor (S)-9b by [^18F]fluoride according to the synthesis described for [^18F]FEtO-CGS 25966 (Wagner et al. [2011]). The radiosynthesis provided (S)-[^18F]9a with radiochemical yields of 31–46% (n = 3), radiochemical purities of > 97% in 95–110 min from the end of radionuclide production and molar activities of 2.8–3.4 GBq/μmol after radiosynthesis. The experimental logD value of the radioligand was determined in phosphate-buffered saline (PBS) as already described (Prante et al. [2006]).

[2] = parameters: method as in Wagner et al., [2011]; settings: ref Wagner et al., [2011], cited from earlier work
[3] = small animal PET in vivo biodistribution after intravenous injection; parameters: species or system C57/BL6 mice
Procedure: Adult C57/BL6 mice (male, 21–23 g) were anesthetized by isoflurane/O2, and one lateral tail vein was cannulated using a 27 Ga needle connected to 15 cm polyethylene catheter tubing. (S)-[^18F]9a (500 kBq/g bodyweight) was injected as a bolus (50 μL of compound flushed with 100 μL of saline) via the tail vein, and subsequent PET scanning was performed.
PET experiments were carried out using a sub-millimeter high resolution (0.7 mm full width at half maximum) small animal scanner (32 module quadHIDAC, Oxford Positron Systems Ltd., Oxford, UK) with uniform spatial resolution (< 1 mm) over a large cylindrical field (165 mm diameter, 280 mm axial length) (Schäfers et al. [2005]).
List-mode data were acquired for 120 min and reconstructed into dynamic time frames using an iterative reconstruction algorithm. Subsequently, the scanning bed was transferred to the computed tomography (CT) scanner (Inveon, Siemens Medical Solutions, U.S.) and a CT acquisition with a spatial resolution of 80 μm was performed for each mouse. Reconstructed image data sets were co-registered based on extrinsic markers attached to the multimodal scanning bed and the image analysis software (Inveon Research Workplace 3.0, Siemens Medical Solutions, USA). Three-dimensional volumes of interest (VOIs) were defined over the respective organs in CT data sets, transferred to the co-registered PET data and analyzed quantitatively. Regional uptake was calculated as percentage of injected dose by dividing counts per milliliter in the VOI by total counts in the mouse multiplied by 100 (%ID/mL). Routes of tracer elimination were assessed by VOI segmentation of kidneys and bladder (renal route), and liver, gall bladder, small and large intestine (hepatobiliary route). Total activity for each route was calculated as percentage of injected dose by dividing the total counts in the respective VOI by total counts in the mouse multiplied by 100 (%ID).
Maximum intensity projections (MIPs) of the whole body in vivo biodistribution of tracer-associated radioactivity in an adult C57/Bl6 mouse 0–2, 2–5, 5–10, 20–30 and 80–90 min after intravenous injection of (S)-[^18F]9a are shown in Fig. 3.

[4] = in vivo biostability and metabolism study (radio-HPLC of plasma, urine and tissue homogenates); parameters: species or system OCR (CD1) wild type mice; settings: 30 min p.i., mouse
Procedure: Approximately 11.1 MBq (S)-[^18F]9a (in a maximum volume of 200 μL) was injected into three mice each via tail vein injection. The animals were sacrificed at 30 min p.i.. Whole blood was obtained, weighed, and centrifuged at 3000 rpm (3 min) to isolate plasma. Urine was also collected. The muscle, brain, kidneys, and liver were harvested and homogenized in lysis buffer (1% SDS in PBS buffer). An aliquot of each sample (400 μL) was subsequently removed, mixed with 400 μL of acetonitrile and 100 μL of 3% acetic acid in acetonitrile, vigorously mixed, and placed on dry ice for 3 min. After thawing, the samples were centrifuged at 13000 rpm (8 min) to allow for the separation of supernatant from the pellet. The supernatant was then removed and assayed for radioactivity in a PerkinElmer Wizard γ-counter (20 s). The samples were analyzed by HPLC, using a γ-detector (Raytest GmbH/Agilent). HPLC was done on a Phenomenex C18 column (250 mm × 4.6 mm) using a gradient method with acetonitrile and water (both having 0.05% TFA).
An in vivo biostability and metabolism study was performed in three 10-month old female OCR (CD1) wild type mice 30 min p.i.

[5] = Table 1, ref Mac Pherson et al. [1997], Scozzafava et al. 2000, Behrends et al. [2015], read-out: IC50 values MMP-2
[6] = ref Behrends et al., [2015], read-out: IC50 MMP-2
[7] = Table 1, ref Mac Pherson et al. [1997], Scozzafava et al. 2000, Behrends et al. [2015], read-out: IC50 values MMP-9
[8] = ref Behrends et al., [2015], read-out: IC50 MMP-9

SMILES: C=C(F)C[C@@H](C(=O)NO)N(Cc1cccnc1)S(=O)(=O)c1ccc(OC)cc1 [(S)-2]
IC50 (MMP-2; [5]): 7.2 nM | IC50 (MMP-2; [6]): 7.2 ± 0.1 nM | IC50 (MMP-9; [7]): 4.9 nM | IC50 (MMP-9; [8]): 4.9 ± 0.4 nM

IC50 (activated MMP-2): 10.4 ± 5.9 nM | IC50 (activated MMP-9): 0.5 ± 0.3 nM
SMILES: C=C(F)C[C@H](C(=O)NO)N(Cc1ccccc1)S(=O)(=O)c1ccc(OCCF)cc1 [(R)-9a]

IC50 (activated MMP-2): 0.3 ± 0.03 nM | IC50 (activated MMP-9): 0.1 ± 0.01 nM | logD [1]: 1.16 ± 0.2
SMILES: C=C(F)C[C@@H](C(=O)NO)N(Cc1ccccc1)S(=O)(=O)c1ccc(OCCF)cc1 [(S)-9a, (S)-2-[N-Benzyl-4-(2-fluoroethoxy)phenylsulfonamido]-4-fluoro-N-hydroxypent-4-enamide]

SMILES: COc1ccc(S(=O)(=O)N(Cc2cccnc2)[C@@H](CCF)C(=O)NO)cc1 [(S)-1]
IC50 (MMP-2; [5]): 32.8 nM | IC50 (MMP-9; [7]): 3 nM

SMILES: C=C(F)C[C@H](C(=O)NO)N(Cc1cccnc1)S(=O)(=O)c1ccc(OC)cc1 [(R)-2]
IC50 (MMP-2; [5]): 9.3 nM | IC50 (MMP-2; [6]): 9.3 ± 2 nM | IC50 (MMP-9; [7]): 8.3 nM | IC50 (MMP-9; [8]): 8.3 ± 0.1 nM

SMILES: COc1ccc(S(=O)(=O)N(Cc2cccnc2)[C@@H](C(=O)NO)C(C)C)cc1 [(R)-CGS 27023A]
IC50 (MMP-2; [5]): 20 nM | IC50 (MMP-9; [7]): 8 nM

SMILES: COc1ccc(S(=O)(=O)N(Cc2cccnc2)[C@H](CCF)C(=O)NO)cc1 [(R)-1]
IC50 (MMP-2; [5]): 6.4 nM | IC50 (MMP-9; [7]): 12.3 nM

SMILES: CC(C)[C@H](C(=O)NO)N(Cc1ccccc1)S(=O)(=O)c1ccc(OCCF)cc1 [(R)-FEtO- CGS 25966]
logD (exp.) [2]: 2.02 ± 0.03 | logD (exp.) ([2]; listed as the analog derived from CGS 25966): 2.0 | IC50 (MMP-2; ref Wagner et al., [2011], read-out: IC50 MMP-2): 4 ± 3 nM | IC50 (MMP-9; ref Wagner et al., [2011], read-out: IC50 MMP-9): 50 ± 27 nM

logD [1]: 1.16 | hydrophilicity in comparison to [^18F]FEtO-CGS25966 ([1]; from experimental logD values): 7 times | tracer remaining in non-excretion organs ([3]; 80–90 min p.i., mouse, i.v.): no significant tracer remaining | injected tracer activity cleared from the blood and tissues ([3]; 90 min post injection): 73% | defluorination in vivo (bone uptake of [^18F]fluoride ions) ([3]; entire dynamic imaging study, mouse): not observed | accumulation in brain, myocardium, lung and muscles (unspecific binding) ([3]; mouse, i.v., PET): not observed | clearance of tracer and metabolites by renal excretion ([3]; mouse, i.v., PET): 8% | clearance of tracer and metabolites through the liver and the gallbladder ([3]; mouse, i.v., PET): 92% | extent of metabolism in plasma (into four metabolites) [4]: about 92% | extent of metabolism in plasma, kidneys, urine, muscle and brain [4]: about 90% | share of radioactivity in brain ([4]; radio-HPLC): 12 % HPLC | share of radioactivity in kidney ([4]; radio-HPLC): 17 % HPLC | share of radioactivity in liver ([4]; radio-HPLC): 1 % HPLC | share of radioactivity in muscle ([4]; radio-HPLC): 17 % HPLC | share of radioactivity in plasma ([4]; radio-HPLC): 8 % HPLC | metabolism of the parent compound in urine ([4]; to four polar metabolites): complete metabolism
SMILES: C=C(F)C[C@@H](C(=O)NO)N(Cc1ccccc1)S(=O)(=O)c1ccc(OCC[18F])cc1 [(S)-[^18F]9a, (S)-2-[N-Benzyl-4-(2-[^18F]fluoroethoxy)phenylsulfonamido]-4-fluoro-N-hydroxypent-4-enamide]
